Measured values as given in patent publication US6022892A, “Bis-platinum complexes with polyamine ligands as antitumor agents” (Hoffman-La Roche Inc., priority 1998, dated 2000).

Legend:
A2780/CDDP = assay: cytotoxic effect in vitro on cisplatin resistant subline A2780/CDDP; assay type: cell-based, human; conditions: after 1 hour from the drug exposure, resistant line
Protocol: (§1) The compounds of formula (I) were tested for their cytotoxic effect "in vitro" on various tumor cell lines, among which murine leukemia L1210, human ovarian carcinoma A2780 and the respective cisplatin resistant sublines L1210/CDDP and A2780/CDDP.
(§2) a) IC50 (concentration of the drug expressed as ([…] which causes a 50% inhibition of the cell growth) determined after 2 hours from the drug exposure.
(§3) d), e) IC50 determined after 1 hour from the drug exposure in the non resistant and in the resistant cell lines, receptively.

A2780 = assay: cytotoxic effect in vitro on human ovarian carcinoma A2780; assay type: cell-based; conditions: after 1 hour from the drug exposure
Protocol: as §1, §2, §3

L1210/CDDP = assay: cytotoxic effect in vitro on cisplatin resistant subline L1210/CDDP; assay type: cell-based, murine; conditions: after 72 hours from the drug exposure, resistant line
Protocol: as §1, §2
b), c) IC50 determined after 72 hours from the drug exposure in the non resistant and in the resistant cell lines, receptively.

L1210CDDP = assay: in vivo antitumor test, L1210/CDDP tumor cells inoculated ip in mouse; conditions: ip 24, 120 and 216 hours after tumor inoculation
Protocol: In addition, the compounds of the invention were tested in an "in vivo" test in which L1210 and L1210/CDDP tumor cells are inoculated intraperitoneally (ip) in a mouse and the compound is administered ip 24, 120 and 216 hours after tumor inoculation.
% T/C=[(MST treated)/(MST control)]×100

Compound	A2780/CDDP IC50 1h (A2780/CDDP) [µg/mL]	A2780 IC50 1h (A2780) [µg/mL]	L1210/CDDP IC50 72h (L1210/CDDP) [µg/mL]	T/C % (mean survival time treated/control) (L1210CDDP; 6 mg/kg) [%]	T/C % (mean survival time treated/control) (L1210CDDP; 2 mg/kg) [%]
[Cl-].[Cl-].[Cl-].[NH2][Pt+]([NH2])([Cl])[NH]CCCC[NH2+]CCC[NH][Pt+]([NH2])([NH2])[Cl] [Example 14, [trans-(PtCl(NH3)2)2-(-spermidine]Cl3]	0.13	< 0.005	0.03	–	–
N.N.[Cl][Pt][Cl] [cisplatin, reference compound]	–	–	–	110	–
[trans-(PtCl(NH3)2)2 (-spermine]Cl4 [Example 16]	–	< 0.005	–	–	172
[trans-(PtCl(NH3)2)2 H2 N--(CH2)6 --NH2 ](NO3)2 [reference compound]	–	–	0.1	–	–
